From patent US11254688B2 (Boehringer Ingelheim International GmbH, priority 2018, dated 2022)

target: T1, hGOAT (Homo sapiens, UniProt Q96T53); test: Determination of hGOAT activity in HEK293 cells after incubation with test compound (acyl-ghrelin ELISA); assay type: cell-based; details: HEK293 cells stably transfected with preproghrelin and human GOAT; octanoate-BSA 100 μM; 5 hours incubation; acyl-ghrelin in medium by ELISA; 8 compound concentrations
T1 construct: expressed in transfected cells; host or cells: HEK293 (Hek293 hGOAT/PPGhrl Clone #1B8)
T1 sequence (Q96T53 1-435): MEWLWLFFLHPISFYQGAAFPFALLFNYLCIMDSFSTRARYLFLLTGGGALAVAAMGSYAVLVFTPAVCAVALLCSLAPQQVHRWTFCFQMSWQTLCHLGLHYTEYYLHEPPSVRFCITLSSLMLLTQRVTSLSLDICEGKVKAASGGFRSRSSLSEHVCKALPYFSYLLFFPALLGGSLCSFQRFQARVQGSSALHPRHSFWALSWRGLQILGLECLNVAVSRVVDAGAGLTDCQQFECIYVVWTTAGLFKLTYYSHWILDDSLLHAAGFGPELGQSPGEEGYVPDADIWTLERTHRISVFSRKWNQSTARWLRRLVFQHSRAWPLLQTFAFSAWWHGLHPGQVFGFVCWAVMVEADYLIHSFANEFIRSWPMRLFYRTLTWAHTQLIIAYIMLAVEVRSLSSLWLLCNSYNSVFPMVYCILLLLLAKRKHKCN

Row | Structure (SMILES) | IC50
1 | Nc1c(Cc2ccc(C(F)(F)F)cc2)c(C(F)F)nc2nonc12 [Compound 24.5, 5-(Difluoromethyl)-6-{[4-(trifluoromethyl)phenyl]methyl}-[1,2,5]oxadiazolo[3,4-b]pyridin-7-amine] | 289 pM
2 | Cc1nc2nonc2c(N)c1Cc1ccc(C(=O)NC(C)CO)cc1 (stereo not drawn) [Compound 14.10, 4-({7-amino-5-methyl-[1,2,5]oxadiazolo[3,4-b]pyridin-6-yl}methyl)-N-(1-hydroxypropan-2-yl)benzamide] | 4700 pM
3 | Nc1c(Cc2ccc(C(F)(F)F)cc2)c(Cl)nc2nonc12 [Compound 23.2, 5-Chloro-6-{[4-(trifluoromethyl)phenyl]methyl}-[1,2,5]oxadiazolo[3,4-b]pyridin-7-amine] | 232 pM
